In a melting point compilation (Tetko et al.):

melting point | SMILES
301 to 303 °C | N#Cc1ccc(-c2cccs2)[nH]c1=O
139 to 141 °C | O=S(=O)(Cl)c1cc2c(cc1Cl)OCCO2
104 to 106 °C | Cc1ccc(S(=O)(=O)Nc2ccc(Cl)cc2)cc1N
186 to 188 °C | Clc1nc(-c2ccccn2)nc2sc(-c3ccccc3)cc12
94 to 96 °C | CCN1CCN(S(=O)(=O)c2cccc(N)c2)CC1
122 to 124 °C | CNc1cc(-c2ccc(OC)cc2)[nH]n1
74 to 76 °C | O=C(c1ccc(F)cc1)N1CCNCC1
84 to 86 °C | CCN(CC)c1ccnc(NN)n1
81 to 83 °C | O=C(O)C=CC1CCC=CO1 (stereo not given)
193 to 195 °C | O=C(O)CCn1cnc2sc3c(c2c1=O)CCCC3
74 to 76 °C | CC(=O)c1ccc(OC2CCCCC2)cc1
166 to 168 °C | Cc1ccc(C(=O)c2ccccc2C(=O)O)cc1C
149 to 151 °C | O=C(O)C1CC(=O)N(c2ccc(Cl)cc2)C1 (stereo not given)
179 to 181 °C | NS(=O)(=O)c1ccccc1S(=O)(=O)Cl
243 to 245 °C | FC(F)(F)Cn1c(S)nnc1-c1ccncc1
115 to 119 °C | O=Cc1ccc(OCC(=O)c2ccccc2)cc1
194 to 196 °C | CCOC=C1C(=O)N(c2cccc(C(F)(F)F)c2)C(=O)c2ccccc21
119 to 121 °C | CC(C)C(=O)Nc1cccc(N)c1
103 to 105 °C | COc1ccc(C)cc1NC(=O)C1CCCN1 (stereo not given)
181 to 183 °C | O=S(=O)(Nc1nc2ccccc2nc1Cl)c1ccc(F)cc1
196 to 198 °C | CCc1cccc(CC)c1-n1ccnc1S
124 to 126 °C | CCOC(=O)/C(C#N)=C\Nc1ccc2c(c1)OCCCO2
145 to 147 °C | Cc1cc(N)n(-c2cccc(Br)c2)n1
170 to 172 °C | O=C(NCc1cccc(Br)c1)NC1(C(=O)O)CCCC1

melting point | SMILES
90 to 92 °C | O=Cc1csc(-c2ccco2)n1
108 to 110 °C | Cc1nn2cc(CCCO)cnc2c1C
245 to 247 °C | Cn1cc(S(=O)(=O)N2CCOCC2)cc1C(=O)O
174 to 176 °C | CCN(CC)C(=O)c1sc2nc(CCl)[nH]c(=O)c2c1C
193 to 195 °C | Oc1ncncc1Br
34 to 36 °C | Cc1cc(C)c2c(c1)NCCC2
156 to 158 °C | COc1cccc(-c2nnc(N)s2)c1
189 to 191 °C | CC(C)c1nnc(NC(=O)OCC(F)(F)F)s1
169 to 171 °C | Cc1nn(C)c(Cl)c1CC(=O)O
169 to 171 °C | O=C(O)c1ccn(-c2ccc(Cl)cc2)n1
103 to 105 °C | c1cnc2c(c1)NCCC2
112 to 114 °C | ClCc1coc(-c2ccc(Br)cc2)n1
49 to 51 °C | Cc1ccoc1-c1nnc(CCl)o1
129 to 131 °C | Cn1cnc([N+](=O)[O-])c1Oc1ccc(Br)cc1
80 to 82 °C | Cc1ccc(SC2(C(=O)O)CCCC2)cc1
130 to 132 °C | Nc1cccc(I)c1C(=O)O
67 to 69 °C | N#CC1(N)CCN(Cc2ccccc2)CC1
115 to 117 °C | COc1ccc(CN)cc1NC(C)=O
51 to 53 °C | Cc1cccc(C)c1OCCC(=O)O
125 to 127 °C | CSCCC(C(=O)O)N1C(=O)c2ccccc2C1=O (stereo not given)
216 to 218 °C | O=C(O)CN1c2cccc3cccc(c23)S1(=O)=O
224 to 226 °C | COc1cc(C(=O)O)ccc1OCc1ccc(Br)cc1
154 to 156 °C | O=[N+]([O-])c1cccc(-c2nn[nH]n2)c1
149 to 151 °C | O=C1c2ccccc2C(=O)N1c1cnn(Cc2ccccc2)c1

melting point | SMILES
279 to 281 °C | CC1(c2ccc(C(=O)O)cc2)NC(=O)NC1=O (stereo not given)
279 to 281 °C | O=c1[nH]cnc2c1nnn2-c1ccccc1
108 to 110 °C | CC(=O)CC(=O)Nc1cccc(Br)c1
41 to 43 °C | COCCCS(N)(=O)=O
199 to 201 °C | Cc1cc(F)ccc1S(=O)(=O)Nc1ccc(C(=O)O)cc1
159 to 161 °C | NS(=O)(=O)c1cccc(O)c1
195 to 197 °C | O=C(O)c1cc(Cl)c2c(c1)OCCCO2
139 to 141 °C | COc1ccc(S(=O)(=O)CCC(=O)O)cc1OC
130 to 132 °C | CCn1c(S)nnc1-c1ccc(C(C)(C)C)cc1
106 to 108 °C | COc1cc(N)c(C(=O)O)c(OC)c1
207 to 209 °C | O=C(O)C=Cc1cn(-c2ccccc2)nc1-c1ccccc1
48 to 50 °C | Cc1cc(Cl)cc(N)c1I
139 to 141 °C | N#Cc1ccccc1NC(=O)CCCC(=O)O
103 to 105 °C | COc1cc(CCC(=O)O)ccc1OCC(F)(F)F
66 to 68 °C | CSc1ccnc(C#N)c1
132 to 134 °C | Nc1nnc(CC(F)(F)F)o1
286 to 288 °C | O=c1[nH]c(CCl)nc2sc(-c3ccccc3)cc12
43 to 45 °C | CC(C)CCNC(N)=O
84 to 86 °C | COC(=O)C1CCCc2[nH]ncc21 (stereo not given)
65 to 67 °C | COc1cc(CCl)c(OC)cc1Br
158 to 160 °C | CC(C)(C)OC(=O)Nc1ccc(C(=O)O)c(O)c1
189 to 191 °C | Nc1cccc(N2C(=O)c3ccccc3C2=O)c1
179 to 181 °C | O=c1c2sccc2ncn1CCO
79 to 81 °C | COC(=O)C1CCc2[nH]ncc2C1 (stereo not given)

melting point | SMILES
276 to 278 °C | O=C(O)c1ccc2c(=O)n3c(nc2c1)CCCCC3
121 to 123 °C | O=C(O)CCCOc1cccc(Cl)c1Cl
339 to 341 °C | O=C(O)c1cc(NCc2ccccc2)nc2ccccc12
126 to 128 °C | C#CCS(=O)(=O)CCNC(=O)OC(C)(C)C
174 to 176 °C | O=C(CCCl)Nc1ccc(S(=O)(=O)N2CCCC2)cc1
103 to 105 °C | CC(=O)c1ccc(Cl)c(N)c1
91 to 93 °C | COc1ccc(OC)c(CNCCO)c1
152 to 156 °C | COc1ccc(NC(=O)C(Cl)c2ccccc2)cc1 (stereo not given)
160 to 162 °C | Nc1nc(-c2ccc(OCc3ccccc3)cc2)cs1
99 to 101 °C | O=C(CCCl)N1CCN(c2ccc(F)cc2)CC1
121 to 123 °C | COC(=O)c1ccc(C)c(NC(=O)OCC(F)(F)F)c1
166 to 168 °C | COc1ccc(CCNC(N)=S)cc1
35 to 41 °C | Cc1nn(-c2ccccc2)c(Cl)c1CCl
120 to 122 °C | Nc1ccc(-c2ccc[nH]2)cc1
179 to 181 °C | COc1cc(Cl)c(C(=O)O)cc1OC
99 to 101 °C | O=C(O)C(O)c1cc(Cl)cc(Cl)c1 (stereo not given)
64 to 66 °C | CC1CN(C(=O)OC(C)(C)C)CC(C)N1 (stereo not given)
108 to 110 °C | O=C(O)CCc1nc(-c2cccs2)no1
93 to 95 °C | Cc1n[nH]cc1N
154 to 156 °C | O=[N+]([O-])c1cc(S(=O)(=O)N2CCOCC2)ccc1N1CCOCC1
192 to 194 °C | Cc1noc(C)c1CSc1ccccc1C(=O)O
235 to 237 °C | O=C(O)c1nn(-c2cccc(Cl)c2)cc1O
116 to 118 °C | CC(C)C(N)c1nnc2ccccn12 (stereo not given)
196 to 198 °C | CS(=O)(=O)c1ccc(C(N)=NO)cc1

SMILES | melting point
Cc1c(C(=O)O)cnn1CCOC1CCCCO1 (stereo not given) | 139 to 141 °C
O=[N+]([O-])c1ccc(F)c([N+](=O)[O-])c1F | 37 to 39 °C
Cc1cc(N2CCNCC2)nc(C(C)C)n1 | 42 to 46 °C
CN1CCC(NCCO)CC1 | 37 to 39 °C
